Where no end group is shown, it is not given here. The star is where a group is joined. For = O=C*
Experiments:
Assay type in all cases: cell-based, human
[1] = tested on: Phospho-ERα (Ser 118); experiment: Phospho-ERα (Ser 118) Western blot in MDA-MB-231 cells; settings: stimulated lysates
Protocol: (§1) MDA-MB-231 cells were grown in 6 well plates and stimulated with recombinant Wnt-5a protein (rW5a) or the Wnt-5a derived Foxy-5 peptide (F5), for 24 or 48 h. A: Following treatment, cells were lysed and subjected to SDS-PAGE, transferred to nitrocellulose membranes and blotted for phospho-ERα expression. The positive control (Pos) represents cell lysates from T47D cells expressing ERα B and C: RNA was also extracted from stimulated cells and samples tested for progesterone receptor (PR) (B) and pS2 (C) mRNA using semi-nested RT-PCR. The positive control (Pos) is RNA extracted from T47D cells that express ERα. The negative control represents a water control. PCR results are representative of three separate experiments.
Cells were lysed in Triton lysis buffer (50 mM Tris (pH7.5), 1% Triton x-100, 140 mM NaCl, 0.5 mM EDTA, 0.5 MgCl2, 10 mM NaF) with the addition of fresh leupeptin (1 μg/ml), Pefabloc (2 mM), aprotinin (20 μg/ml) and Na3VO4 (4 mM). Lysates were incubated on ice for 15 minutes, then pre-cleared by centrifugation for 10 minutes at 8000 g. Cell lysates were separated according to size on 8-12% SDS-polyacrylamide gels and subsequently electrically transferred to PVDF or nitrocellulose membranes. […] Scanning and densitometry was performed using a Bio-Rad (Hercules Calif.) GS-800 densitometer with Quantity One software. […]

[2] = tested on: ERα; experiment: ERα protein expression by Western blot in stimulated MDA-MB-468 cells; settings: stimulation for 24 and 48 hours
Protocol: Breast cancer cells were grown in 6 well plates, and stimulated with recombinant Wnt-5a protein (rW5a), the Wnt-5a derived Foxy-5 peptide (F5), recombinant Wnt-3a protein (rW3a), or a formylated random hexapeptide (Rdm) for 24 or 48 h. Following treatment cells were lysed and subjected to SDS-PAGE, transferred to nitrocellulose membranes and blotted for ERα expression. A: MDA-MB-231 cells stimulated with recombinant Wnt-5a, Foxy-5, Wnt-3a, Rdm. B: MDA-MB-468 cells stimulated with recombinant Wnt-5a or Foxy-5. C: 4T1 cells stimulated with recombinant Wnt-5a or Foxy-5. Positive controls (Pos) were included in order to confirm the correct band size for ERα. Two different positive controls were used: T47D cell lysates known to express ERα and MDA-MB-231 cells transiently transfected with a full length ERα plasmid, resulting in extremely high ERα expression (top row, right panel, third row, right panel). […]
Cells were lysed in Triton lysis buffer (50 mM Tris (pH7.5), 1% Triton x-100, 140 mM NaCl, 0.5 mM EDTA, 0.5 MgCl2, 10 mM NaF) with the addition of fresh leupeptin (1 μg/ml), Pefabloc (2 mM), aprotinin (20 μg/ml) and Na3VO4 (4 mM). […] Scanning and densitometry was performed using a Bio-Rad (Hercules Calif.) GS-800 densitometer with Quantity One software. […]

[3] = tested on: progesterone receptor (PR); experiment: Progesterone receptor mRNA by semi-nested RT-PCR in MDA-MB-231 cells; settings: after 96 hours stimulation
From the text: as §1, with “A:” for “MDA-MB-231 cells were grown in 6 well plates and stimulated with recombinant Wnt-5a protein (rW5a) or the Wnt-5a derived Foxy-5 peptide (F5), for 24 or 48 h. A:”
cDNA was synthesized from 1 μg of total RNA using M-MuLV reverse transcriptase (Fermentas) in a MJ Mini Personal Thermal Cycler (Bio-Rad (Hercules Calif.)). All RT-PCR was performed in a designated clean PCR hood. RT-PCR was performed using a master mix containing with 5 μl of 10× buffer, 5 μl of 25 mM MgCl2, 1 μl 10 mM dNTP, 1 μl forward primer, 1 μl reverse primer and 0.2 μl of Taq polymerase (Fermentas (Ontario, Canada)) per sample. For detection of the progesterone receptor (PR), semi nested RT-PCR was performed to increase sensitivity, whereby 10 μl of the initial PCR reaction product was added to a second PCR reaction with a second internal reverse primer. Both A and β isoforms are amplified with these primers.

Molecule	Phosphorylated ERα (serine 118) [1]	ERα levels [2]	PR mRNA [3]
formyl-MDGCEL (For-MDGCEL; listed as Homo sapiens) [Foxy-5]	detected	upregulated	detected
recombinant Wnt-5a: recombinant Wnt-5a protein (R&D Systems) (protein, UniProt P41221 62-380, looked up) Protein Wnt-5a: IIGAQPLCSQLAGLSQGQKKLCHLYQDHMQYIGEGAKTGIKECQYQFRHRRWNCSTVDNTSVFGRVMQIGSRETAFTYAVSAAGVVNAMSRACREGELSTCGCSRAARPKDLPRDWLWGGCGDNIDYGYRFAKEFVDARERERIHAKGSYESARILMNLHNNEAGRRTVYNLADVACKCHGVSGSCSLKTCWLQLADFRKVGDALKEKYDSAAAMRLNSRGKLVQVNSRFNSPTTQDLVYIDPSPDYCVRNESTGSLGTQGRLCNKTSEGMDGCELMCCGRGYDQFKTVQTERCHCKFHWCCYVKCKKCTEIVDQFVCK	detected	upregulated	detected
